Like-named read-outs stand apart in the source and are kept apart here.
Legend:
[1] = test system: stage 4-metastatic pancreatic cancer; assay: Case report: antibiotic treatment of pancreatic cancer (Example 3); assay type: in vivo, human; details: before antibiotic treatment
Description: Ascites had developed and paracentesis was performed 3 days prior to our first visit. They were having difficulty breathing and eating due to abdominal distention from ascites. […] Treatment with Amoxicillin 500 mg 1 QD, Ketek 500 mg 1 QD, and Flagyl 500 mg 1-2 QD was initiated. […] 4, 2005 and was tolerating the above protocol. Their lab results from Jan. […] 27, 2004:
The dose of Flagyl was increased to 1500 mg on Jan. […] 27, 2005.

Cpn infected macrophages = details: in vitro; cited from earlier work
[2] = cited from earlier work
recurrent bronchitis = assay: Case report: post-radiation recurrent bronchitis, antibacterial and antifungal therapy; assay type: in vivo, human; details: 500 mg QD #20; sputum positive for Klebsiella pneumoniae
Excerpt: It is generally known that ACC is not usually sensitive to chemotherapy or standard […] beam radiation. Higher energy radiation doses, such as neutron beam radiation, have shown some promise and referral to the Cancer Center for radiation treatment was arranged. Under the care of a physician, 16 sessions of neutron beam radiation were provided, followed by two sessions of endotracheal brachytherapy with proton radiation. The patient tolerated the radiation relatively well and returned to work. They were warned that chronic bronchitis might follow airway radiation from the loss of salivary cells and ciliary cells in the bronchus. The patient was screened for recurrence twice yearly with neck MRI and lung CT for 3 years and there was no evidence of recurrence. Post radiation year 4 brought recurrent bronchitis that would remit temporarily with antibiotic therapy.
Bronchoscopy was performed in January of 2004 to better determine the source of recurrent bronchitis. There was no evidence of cancer recurrence (FIG. 1). […] Brochoscopic washings were also sent for fungal cultures. The patient's IgG levels to Penicillium and Aspergillus were elevated, while the routine fungal cultures from bronchial washings were negative. […] The patient reported reduced fatigue, reduced inhalant allergies and a slight reduction in volume of sputum production. […]

[3] = test system: SLE, hypocomplementemic urticarial vasculitis; details: in vivo
Alzheimer's dementia = assay: Case report: DRS-2 in a patient with Alzheimer's dementia; details: human, in vivo
Description: A retired attorney with Alzheimer's dementia was tested with the DRS-2 and found to be in the first percentile overall before T3 treatment and in the 25th percentile after 3 months of slow-release T3 therapy. Some parameters such as “conceptualization” increase dramatically from the 4th to the 50th percentile and “attention” improved from the 35th to the 89th percentile. […] Serology for Chlamydia pneumoniae confirmed both IgG and IgA antibodies (consistent with chronic or relapsing infection) and treatment with antibiotic medication has provided additional improvement in cognitive function. Prophylactic treatment with low dose antifungal medication is a component of this treatment.

seropositive RA = assay: Case report: Chlamydia pneumoniae-related rheumatoid arthritis; assay type: in vivo, human; details: low dose
Description: A person with seropositive RA with joint swelling in their hands, elbows, knees and feet had negative serology for Chlamydia pneumoniae infection, along with elevated rT3/fT3 ratio and symptoms of fibromyalgia. They were initially treated with immunosuppressive medication including Prednisone 20 mg QD, Methotrexate 15 mg Qweek, antiTNF therapy with Humira injections twice monthly with limited response of less than ACR 20. […] After failing immunosuppressive therapy, a course of antibiotics designed to treat Chlamydia pneumoniae infection was prescribed. The antibiotic protocol is consistent with that recommended by Dr. Charles Stratton of Vanderbilt University for Chlamydia pneumoniae infection. […] This example illustrates the unreliable nature of currently available tests for Chlamydia pneumoniae infection and that patients with autoimmune disease with negative tests for Chlamydia pneumoniae infection are likely to have seronegative Chlamydia pneumoniae infection and respond to antibiotics. The use of T3 and antifungal medication in conjunction with antibiotic treatment has been beneficial.

[4] = test system: stage-4 metastatic breast cancer; assay: Case report: antibiotic treatment of metastatic breast cancer; assay type: in vivo, human
Description: A person was diagnosed with stage-4 metastatic breast cancer with bone, pelvic and lung involvement. Treatment was initiated on Jan. 23, 2005 with Amoxicillin 500 mg 1 QD, Ketek 400 mg 1 QD, Flagyl 500 mg 2 BID. The dose of Flagyl was […] to 500 mg 1 BID on Feb. 1, 2005. By Feb. […] Hospitalization was necessary. […] The attending physicians presumed the cause of their condition was C. difficile related despite the negative tests and treated them with metronidazole. […] They were encouraged to discontinue antibiotic treatment and enter hospice for palliative care.

pancreatic cancer = details: in vivo
[5] = test system: SLE, hypocomplementemic urticarial vasculitis; assay: Case report: treatment of systemic lupus erythematosus

For `CCCCCOC(=O)Nc1nc(=O)n([C@@H]2O[C@H](C)[C@@H](O)[C@H]2O)cc1F` [zoloda], the outcome of chemotherapy [1] was “failed”.

In the case of `O=C1O[C@H]([C@@H](O)CO)C(O)=C1O` [Ascorbic acid], the “effect on Cpn in infected macrophages” value (Cpn infected macrophages) is listed as “driving the organism into cryptic phase” and the half life [2] is listed as 30 min.

In the case of `C[C@H]1COc2c(N3CCN(C)CC3)c(F)cc3c(=O)c(C(=O)O)cn1c23` [Levoquin], the sputum production (recurrent bronchitis) is reported as “reduced sputum production for three weeks”.

In the case of `Cc1oncc1C(=O)Nc1ccc(C(F)(F)F)cc1` [Arava], the tolerability of trial [3] is reported as “poorly tolerated”.

With `N[C@@H](Cc1cc(I)c(Oc2ccc(O)c(I)c2)c(I)c1)C(=O)O` [T3, triiodothyronine] the “effect of discontinuation of supplementation” value (Alzheimer's dementia) was “worsening of Alzheimer's symptoms” and the “fatigue and muscle pain” value (seropositive RA) was “fatigue and muscle pain improved”.

With `CN[C@H](CC(C)C)C(=O)N[C@H]1C(=O)N[C@@H](CC(N)=O)C(=O)N[C@H]2C(=O)N[C@H]3C(=O)N[C@H](C(=O)N[C@H](C(=O)O)c4cc(O)cc(O)c4-c4cc3ccc4O)[C@H](O)c3ccc(c(Cl)c3)Oc3cc2cc(c3O[C@@H]2O[C@H](CO)[C@@H](O)[C@H](O)[C@H]2O[C@H]2C[C@](C)(N)[C@H](O)[C@H](C)O2)Oc2ccc(cc2Cl)[C@H]1O` [Vancomycin] the symptoms after switch ([4]; in hospital) was “symptoms gradually improved six days later”.

For `Cc1ncc([N+](=O)[O-])n1CCO` [metronidazole], the “tolerability of increased dose” value (pancreatic cancer) was “well tolerated”, the adverse reaction ([4]; after one week of increased doses) was “severe depression, hypotension, hypothermia, emesis and diarrhea” and the “symptoms of presumed C. difficile diarrhea” value ([4]; in hospital, C. difficile tests negative) was “symptoms did not remit”.

For `CN(Cc1cnc2nc(N)nc(N)c2n1)c1ccc(C(=O)N[C@@H](CCC(=O)O)C(=O)O)cc1` [methotrexate], the tolerability of trial ([5]; additional immunosuppressive therapy) was “poorly tolerated”.

In the case of `CCN(CCO)CCCC(C)Nc1ccnc2cc(Cl)ccc12` (stereo not shown) [hydroxychloroquine], the “synovitis, hypocomplementemic urticarial rash and proteinuria” value ([5]; before October 2003) is reported as “responding to treatment”.

Source: patent US8343488B2, “Diagnosis and treatment of human dormancy-related sequellae” (priority 2002, dated 2013)
